# Data as given in ChEMBL document CHEMBL1201862, “PubChem BioAssay data set” (2004).
# Several values for one entry are separate records, joined by “and”; a condition that tells them apart may be missing. Identical values can stand only once. Activity calls are given as the source filed them.
# Assays:
# [1] = target: T1, Tyrosine-protein phosphatase non-receptor type 22 (Homo sapiens, UniProt Q9Y2R2); assay: lymphoid phosphatase LYP inhibitors – biochemical, selectivity assay for STEP inhibitor project, dose response (AID 624241); assay type: functional
# T1 sequence (Q9Y2R2 whole entry): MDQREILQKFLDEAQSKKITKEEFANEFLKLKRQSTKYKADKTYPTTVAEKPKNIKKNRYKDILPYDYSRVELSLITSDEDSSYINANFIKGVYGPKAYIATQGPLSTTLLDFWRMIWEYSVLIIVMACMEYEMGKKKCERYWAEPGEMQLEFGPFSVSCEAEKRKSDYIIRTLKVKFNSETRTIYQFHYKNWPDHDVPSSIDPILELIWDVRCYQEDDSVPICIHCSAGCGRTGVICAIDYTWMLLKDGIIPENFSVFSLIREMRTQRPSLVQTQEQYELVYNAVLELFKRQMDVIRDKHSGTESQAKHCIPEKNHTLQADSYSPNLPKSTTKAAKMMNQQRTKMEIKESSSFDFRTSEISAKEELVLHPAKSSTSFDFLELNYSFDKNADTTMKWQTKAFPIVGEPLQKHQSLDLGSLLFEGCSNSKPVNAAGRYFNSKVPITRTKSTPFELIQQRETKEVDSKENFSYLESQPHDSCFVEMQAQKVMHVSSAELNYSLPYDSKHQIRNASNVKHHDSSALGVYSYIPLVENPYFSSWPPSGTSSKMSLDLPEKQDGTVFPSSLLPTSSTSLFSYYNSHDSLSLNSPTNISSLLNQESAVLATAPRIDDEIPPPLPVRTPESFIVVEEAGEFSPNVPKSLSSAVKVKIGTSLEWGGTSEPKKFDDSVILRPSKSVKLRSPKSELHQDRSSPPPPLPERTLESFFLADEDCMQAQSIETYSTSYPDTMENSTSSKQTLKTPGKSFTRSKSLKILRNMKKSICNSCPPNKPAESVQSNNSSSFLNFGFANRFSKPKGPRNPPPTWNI
# [2] = target: T2, Dual specificity protein phosphatase 3 (Homo sapiens, UniProt P51452); assay: VHR1 phosphatase inhibitors, biochemical (AID 1878)
# [3] = target: Tyrosine-protein phosphatase non-receptor type 11 (Homo sapiens, UniProt Q06124); assay: PTPN11 enzyme inhibitors – biochemical, selectivity assay for STEP inhibitor project, dose response (AID 602367); assay type: functional; conditions: read-out: IC50_Mean
# [4] = target: T3, Dual specificity protein phosphatase 6 (Rattus norvegicus, UniProt Q64346); assay: inhibition of rat DUSP6 enzyme activity – biochemical, in vitro, primary screen (AID 425)
# T3 sequence (Q64346 whole entry): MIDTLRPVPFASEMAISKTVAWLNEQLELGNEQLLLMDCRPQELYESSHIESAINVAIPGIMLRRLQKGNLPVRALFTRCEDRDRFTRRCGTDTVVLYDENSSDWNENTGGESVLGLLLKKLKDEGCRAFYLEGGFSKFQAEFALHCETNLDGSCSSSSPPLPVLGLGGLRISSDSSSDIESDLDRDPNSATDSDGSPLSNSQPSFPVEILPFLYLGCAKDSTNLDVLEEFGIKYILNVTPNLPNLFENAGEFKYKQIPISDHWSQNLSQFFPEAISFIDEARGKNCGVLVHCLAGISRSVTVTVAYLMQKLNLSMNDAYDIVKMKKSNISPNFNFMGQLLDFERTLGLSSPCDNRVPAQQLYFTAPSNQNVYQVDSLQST
# [5] = target: T4, Small ubiquitin-related modifier 1 (Homo sapiens, UniProt P63165); assay: SUMO1 protein-protein binding blockers, potency – biochemical, FRET, dose response (AID 624383); assay type: functional; conditions: read-out: IC50_Mean
# Caspase-6 = target: T5, Caspase-6 (Homo sapiens, UniProt P55212); assay: inhibition of CASP6 peptide cleavage – biochemical, VEID-R110 fluorescence, cherry-pick, dose response (AID 720632)
# T5 sequence (P55212 whole entry): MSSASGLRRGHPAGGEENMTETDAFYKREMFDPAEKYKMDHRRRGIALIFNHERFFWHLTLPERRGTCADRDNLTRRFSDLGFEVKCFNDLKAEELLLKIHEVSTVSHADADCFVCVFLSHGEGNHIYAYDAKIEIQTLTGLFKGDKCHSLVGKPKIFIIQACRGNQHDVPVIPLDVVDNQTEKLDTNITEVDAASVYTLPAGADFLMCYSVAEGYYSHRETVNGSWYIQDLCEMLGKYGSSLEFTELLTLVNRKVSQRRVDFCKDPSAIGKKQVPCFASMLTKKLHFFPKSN
# [6] = target: T6, Low molecular weight phosphotyrosine protein phosphatase (Homo sapiens, UniProt P24666); assay type: functional; conditions: read-out: IC50_Mean
# T6 sequence (P24666 whole entry): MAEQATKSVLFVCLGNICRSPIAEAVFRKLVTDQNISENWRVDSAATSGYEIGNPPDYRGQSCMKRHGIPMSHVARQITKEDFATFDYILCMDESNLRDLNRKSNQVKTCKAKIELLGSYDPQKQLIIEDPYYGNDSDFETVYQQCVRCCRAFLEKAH
# [7] = target: T6, Low molecular weight phosphotyrosine protein phosphatase; assay type: functional; conditions: read-out: IC50_Mean; remark: listed apart in the source
# [8] = target: T4, Small ubiquitin-related modifier 1; assay: SUMO1 protein interaction blockers, potency – biochemical, fluorescence polarization, uHTS hits, dose response (AID 624382); assay type: functional; conditions: read-out: IC50_Mean
# [9] = target: T2, Dual specificity protein phosphatase 3; assay: VHR1 phosphatase inhibitors, primary screen, biochemical, absorbance, uHTS (AID 1654)
# [10] = target: T2, Dual specificity protein phosphatase 3; assay: VHR phosphatase inhibition, dose response, selectivity assay for STEP inhibitor project, biochemical (AID 602374); assay type: functional; conditions: read-out: IC50_Mean
# Genome polyprotein = Genome polyprotein (dengue virus type 2, UniProt P29990); assay: flavivirus cap methylation enzyme inhibition – biochemical, confirmation dose response, primary screen (AID 588689); assay type: functional
# [11] = target: Tyrosine-protein phosphatase non-receptor type 5 (Homo sapiens, UniProt P54829); assay: PTPN5 enzyme inhibition – biochemical, fluorescence intensity, uHTS hits, confirmation (AID 602372); assay type: functional; conditions: read-out: IC50_Mean
# [12] = target: T7, Carboxy-terminal domain RNA polymerase II polypeptide A small phosphatase 1 (Homo sapiens, UniProt Q9GZU7); assay: CTDSP1 inhibitors, concentration-response, biochemical, absorbance readout, ultra-high-throughput screen actives (AID 540297); assay type: functional
# T7 sequence (Q9GZU7 whole entry): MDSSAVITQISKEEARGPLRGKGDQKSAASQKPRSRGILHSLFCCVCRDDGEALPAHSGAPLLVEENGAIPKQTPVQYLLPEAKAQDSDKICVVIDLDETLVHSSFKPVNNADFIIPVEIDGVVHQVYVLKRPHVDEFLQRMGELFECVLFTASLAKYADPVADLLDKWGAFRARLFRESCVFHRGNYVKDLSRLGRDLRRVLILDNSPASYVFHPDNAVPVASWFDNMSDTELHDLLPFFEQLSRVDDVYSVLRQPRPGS
# [13] = target: T8, Beta-2 adrenergic receptor (Homo sapiens, UniProt P07550); assay: ADRB2 activation measured by internalization – cell-based, FAP fluorogen, flow cytometry, cherry pick 1, dose response (AID 588763); assay type: functional
# [14] = target: T8, Beta-2 adrenergic receptor; assay: Dose response for HTS for Beta-2AR agonists via FAP method from Powderset1.; assay type: functional
# Protein S100-A4 = Protein S100-A4 (Homo sapiens, UniProt P26447); assay: human S100A4 peptide interaction inhibition curves – biochemical, fluorescence polarization, cherry-picked hits, dose response (AID 687001); assay type: functional
# [15] = target: T9, DNA repair and recombination protein RAD54-like (Homo sapiens, UniProt Q92698); assay: RAD54 Holliday junction migration blockers – biochemical, fluorescence, cherry-picked samples, dose series, confirmation (AID 651657); assay type: functional
# T9 sequence (Q92698 whole entry): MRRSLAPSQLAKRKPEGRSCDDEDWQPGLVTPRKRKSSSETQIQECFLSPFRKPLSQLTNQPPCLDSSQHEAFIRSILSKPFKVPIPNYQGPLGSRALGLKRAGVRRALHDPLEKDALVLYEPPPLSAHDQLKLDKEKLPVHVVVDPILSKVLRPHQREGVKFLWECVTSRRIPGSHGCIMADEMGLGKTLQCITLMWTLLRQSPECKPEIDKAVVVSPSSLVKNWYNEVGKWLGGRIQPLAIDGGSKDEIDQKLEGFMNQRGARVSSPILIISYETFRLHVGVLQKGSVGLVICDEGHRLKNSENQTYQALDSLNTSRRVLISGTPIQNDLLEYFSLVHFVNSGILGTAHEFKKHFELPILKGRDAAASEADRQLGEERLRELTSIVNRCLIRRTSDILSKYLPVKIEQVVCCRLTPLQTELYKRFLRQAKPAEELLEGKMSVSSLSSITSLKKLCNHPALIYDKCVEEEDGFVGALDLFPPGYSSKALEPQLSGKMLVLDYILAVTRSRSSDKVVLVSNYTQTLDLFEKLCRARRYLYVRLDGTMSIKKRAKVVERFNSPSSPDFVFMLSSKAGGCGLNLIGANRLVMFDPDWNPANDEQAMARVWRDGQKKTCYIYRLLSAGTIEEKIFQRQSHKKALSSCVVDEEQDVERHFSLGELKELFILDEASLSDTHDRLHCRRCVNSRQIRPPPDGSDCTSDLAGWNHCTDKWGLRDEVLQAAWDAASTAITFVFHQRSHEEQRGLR
# [16] = target: T10, DNA repair protein RAD52 homolog (Homo sapiens, UniProt P43351); assay type: functional, biochemical
# T10 sequence (P43351 whole entry): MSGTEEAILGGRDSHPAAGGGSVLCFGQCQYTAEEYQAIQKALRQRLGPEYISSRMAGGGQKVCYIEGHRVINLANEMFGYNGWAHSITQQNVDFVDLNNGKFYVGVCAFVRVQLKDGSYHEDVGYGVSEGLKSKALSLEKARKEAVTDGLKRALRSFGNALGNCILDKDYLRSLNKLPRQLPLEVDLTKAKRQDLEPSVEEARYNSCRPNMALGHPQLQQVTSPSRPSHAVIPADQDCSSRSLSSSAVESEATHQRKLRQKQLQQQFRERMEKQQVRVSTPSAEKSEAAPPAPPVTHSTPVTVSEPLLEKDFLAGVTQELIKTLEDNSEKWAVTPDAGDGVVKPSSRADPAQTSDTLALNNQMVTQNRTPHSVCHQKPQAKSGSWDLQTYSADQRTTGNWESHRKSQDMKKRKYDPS
# T8 sequence (P07550 whole entry): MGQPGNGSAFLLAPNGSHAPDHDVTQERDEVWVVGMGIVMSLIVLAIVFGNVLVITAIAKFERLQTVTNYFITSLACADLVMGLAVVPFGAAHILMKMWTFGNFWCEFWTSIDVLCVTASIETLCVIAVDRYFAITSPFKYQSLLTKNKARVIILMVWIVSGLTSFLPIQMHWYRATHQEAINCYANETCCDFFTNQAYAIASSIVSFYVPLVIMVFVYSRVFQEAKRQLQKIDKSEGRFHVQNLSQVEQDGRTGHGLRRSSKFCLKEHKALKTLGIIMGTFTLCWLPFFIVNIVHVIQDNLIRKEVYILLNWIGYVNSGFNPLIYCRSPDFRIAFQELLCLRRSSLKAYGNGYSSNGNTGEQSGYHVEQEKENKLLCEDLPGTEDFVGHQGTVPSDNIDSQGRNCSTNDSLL
# T2 sequence (P51452 whole entry): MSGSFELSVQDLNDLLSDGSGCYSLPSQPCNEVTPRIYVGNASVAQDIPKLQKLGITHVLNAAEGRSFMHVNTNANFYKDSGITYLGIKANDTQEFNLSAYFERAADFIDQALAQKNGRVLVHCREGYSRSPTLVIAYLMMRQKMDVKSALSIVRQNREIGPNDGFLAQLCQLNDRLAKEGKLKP
# T4 sequence (P63165 whole entry): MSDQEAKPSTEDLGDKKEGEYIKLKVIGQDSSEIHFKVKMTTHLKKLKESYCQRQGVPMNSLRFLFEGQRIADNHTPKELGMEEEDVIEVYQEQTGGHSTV
# Protein S100-A4, sequence (P26447 whole entry): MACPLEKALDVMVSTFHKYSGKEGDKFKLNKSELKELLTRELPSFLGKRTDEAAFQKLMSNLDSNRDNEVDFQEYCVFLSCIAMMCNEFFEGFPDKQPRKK
# Genome polyprotein, sequence (P29990 2492-3391 limits assumed): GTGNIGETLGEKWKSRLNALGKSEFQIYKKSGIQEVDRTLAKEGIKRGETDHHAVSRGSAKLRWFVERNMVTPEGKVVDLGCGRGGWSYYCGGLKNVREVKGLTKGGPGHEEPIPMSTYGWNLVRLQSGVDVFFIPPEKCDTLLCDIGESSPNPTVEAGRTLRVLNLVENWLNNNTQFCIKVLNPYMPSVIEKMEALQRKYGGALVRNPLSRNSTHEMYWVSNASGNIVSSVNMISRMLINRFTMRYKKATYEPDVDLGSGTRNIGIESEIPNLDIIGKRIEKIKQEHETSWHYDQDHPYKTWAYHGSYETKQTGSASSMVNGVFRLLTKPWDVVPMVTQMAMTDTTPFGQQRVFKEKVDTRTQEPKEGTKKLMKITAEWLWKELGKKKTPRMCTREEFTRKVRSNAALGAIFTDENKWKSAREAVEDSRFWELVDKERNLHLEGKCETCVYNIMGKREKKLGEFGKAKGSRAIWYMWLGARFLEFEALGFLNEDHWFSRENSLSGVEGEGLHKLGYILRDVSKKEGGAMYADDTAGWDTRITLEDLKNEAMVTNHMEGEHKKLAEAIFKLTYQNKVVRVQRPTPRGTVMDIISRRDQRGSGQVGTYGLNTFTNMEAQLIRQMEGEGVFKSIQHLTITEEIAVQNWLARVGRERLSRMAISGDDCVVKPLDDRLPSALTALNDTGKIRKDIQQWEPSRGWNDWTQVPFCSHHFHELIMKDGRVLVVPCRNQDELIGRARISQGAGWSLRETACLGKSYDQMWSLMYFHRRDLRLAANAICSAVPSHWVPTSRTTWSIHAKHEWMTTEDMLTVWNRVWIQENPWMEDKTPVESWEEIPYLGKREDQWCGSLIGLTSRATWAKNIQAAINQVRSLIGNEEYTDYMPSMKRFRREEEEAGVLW
# Tyrosine-protein phosphatase non-receptor type 11, sequence (Q06124 whole entry): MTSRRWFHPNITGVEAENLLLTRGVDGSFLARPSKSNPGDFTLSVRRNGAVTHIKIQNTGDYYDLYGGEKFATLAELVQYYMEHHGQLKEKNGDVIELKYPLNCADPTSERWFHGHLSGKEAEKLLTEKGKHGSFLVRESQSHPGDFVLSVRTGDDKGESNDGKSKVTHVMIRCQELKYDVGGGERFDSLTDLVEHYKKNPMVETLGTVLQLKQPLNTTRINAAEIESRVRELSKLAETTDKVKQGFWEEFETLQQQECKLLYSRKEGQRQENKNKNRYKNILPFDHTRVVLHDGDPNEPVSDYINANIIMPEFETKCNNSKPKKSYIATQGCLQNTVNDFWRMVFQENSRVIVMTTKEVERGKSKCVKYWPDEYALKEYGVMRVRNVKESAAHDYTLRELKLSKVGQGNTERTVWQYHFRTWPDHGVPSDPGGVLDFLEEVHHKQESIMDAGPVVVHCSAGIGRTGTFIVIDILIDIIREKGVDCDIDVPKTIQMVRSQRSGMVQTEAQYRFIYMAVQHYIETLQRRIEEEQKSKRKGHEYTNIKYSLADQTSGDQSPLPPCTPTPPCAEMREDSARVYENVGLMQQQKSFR
# Tyrosine-protein phosphatase non-receptor type 5, sequence (P54829 whole entry, the tested form may be a part): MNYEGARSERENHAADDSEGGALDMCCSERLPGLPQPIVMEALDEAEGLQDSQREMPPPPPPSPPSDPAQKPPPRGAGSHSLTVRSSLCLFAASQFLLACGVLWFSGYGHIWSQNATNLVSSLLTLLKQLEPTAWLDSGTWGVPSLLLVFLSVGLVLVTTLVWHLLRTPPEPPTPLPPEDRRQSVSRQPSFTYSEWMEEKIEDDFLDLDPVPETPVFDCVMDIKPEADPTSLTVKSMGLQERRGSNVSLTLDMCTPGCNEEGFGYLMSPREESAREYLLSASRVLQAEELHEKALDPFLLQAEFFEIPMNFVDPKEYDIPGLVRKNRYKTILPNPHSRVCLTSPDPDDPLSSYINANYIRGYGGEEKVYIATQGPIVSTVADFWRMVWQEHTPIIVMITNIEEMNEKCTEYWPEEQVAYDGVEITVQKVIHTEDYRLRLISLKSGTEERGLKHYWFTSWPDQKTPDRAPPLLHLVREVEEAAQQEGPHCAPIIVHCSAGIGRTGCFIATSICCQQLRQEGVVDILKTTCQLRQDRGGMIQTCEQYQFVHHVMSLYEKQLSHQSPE
smiles,measurement,setting,value
Cc1c(CCC(=O)O)c(=O)oc2c(C)c(OCc3cc4c(cc3Cl)OCO4)ccc12,IC50,[1],9 µM (active)
same,IC50,[2],2.99 µM (active)
same,IC50,[3],1.51 µM (active)
same,IC50,[4],78.7 µM (active)
same,IC50,[5],10.3 µM (active)
same,AC50,Caspase-6,7.15 µM (active)
same,IC50,[6],8.04 µM (active)
same,IC50,[7],24.9 µM (inactive)
same,IC50,[8],> 66.6 µM (inactive)
same,IC50,[9],17.4 µM (active)
same,IC50,[10],1.67 µM (active)
same,IC50,Genome polyprotein,51.7 µM (active)
same,IC50,[11],3.97 µM (active)
same,IC50,[12],3.17 µM (active)
Cc1ccc(OCC(=O)Nc2ccc(-c3nc4ncccc4o3)cc2)c(C)c1,EC50,[13],316 nM (active) and 92.7 nM (active)
same,EC50,[14],0.503 µM (active)
Cc1cccc(-c2cc(N3CCCN(C)CC3)n3nccc3n2)c1,AC50,Protein S100-A4,7.12 µM (active)
same,AC50,[15],24 µM (active)
same,AC50,[16],2.45 µM (active)
